According to patent publication US8637496B2, “Compounds having a monogalactosyldiacylglycerol synthase inhibitory activity as herbicide or algaecide, herbicide and algaecide compositions” (Commissariat a l'Energie Atomique, priority 2007, dated 2014):
Counter-ions that a name gives are not always drawn.

Each molecule was assayed against T1, MGDG synthase in isolated spinach chloroplast envelope membranes (Spinacia oleracea, UniProt Q9SM44) (assay: MGDG synthase activity in envelope membrane fractions isolated from spinach chloroplasts). Conditions: Table 1, obtained in the same manner as FIG. 4; read-out: Inhibitory effect on MGDG synthesis in isolated spinach chloroplast envelope membranes.
T1 construct: envelope membranes purified from the lysate by sucrose centrifugation gradient; from tissue; host or cells: envelope membranes of chloroplasts from spinach leaves
T1 sequence (Q9SM44 99-522): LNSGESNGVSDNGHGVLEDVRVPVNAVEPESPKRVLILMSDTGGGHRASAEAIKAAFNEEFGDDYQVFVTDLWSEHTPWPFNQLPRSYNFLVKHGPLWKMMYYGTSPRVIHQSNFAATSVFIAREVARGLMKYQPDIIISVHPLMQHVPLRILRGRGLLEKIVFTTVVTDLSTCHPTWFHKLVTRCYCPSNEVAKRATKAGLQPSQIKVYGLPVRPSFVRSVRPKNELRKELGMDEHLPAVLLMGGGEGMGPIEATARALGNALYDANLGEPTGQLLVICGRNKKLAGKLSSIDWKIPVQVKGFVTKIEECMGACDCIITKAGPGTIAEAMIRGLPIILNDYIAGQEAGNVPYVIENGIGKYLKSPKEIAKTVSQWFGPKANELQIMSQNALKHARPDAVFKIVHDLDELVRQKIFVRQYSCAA
Type: biochemical
From the text: All the operations have been carried out as described in the article by Maréchal, E. et al., J. Biol. Chem., 1995, 270, 5714-5722. Crude chloroplasts were obtained from 3-4 kg of spinach leaves and purified by isopycnic centrifugation using Percoll gradients. Purified intact chloroplasts have then been lysed in hypotonic medium and envelope membranes purified from the lysate by sucrose centrifugation gradient as described in the article by Douce, R. and Joyard, J., (1982) in Methods in Chloroplast Molecular Biology (Edelman, M., Hallick R and Chua N H eds), pp 239-256, Elsevier Science Publishers B.V. Amsterdam.
MGDG synthase activity was assayed as described in the article by Maréchal et al. (1995).

| IC50 [µM] | SMILES |
| --- | --- |
| 100 to 500 | C[C@@H](COC(=O)N1CCC(n2cnc3ccccc32)CC1)N(Cc1ccccc1)Cc1ccccc1 [Compound 1, (S)-2-(dibenzylamino)propyl 4-(1H-benzo[d]imidazol-1-yl)piperidine-1-carboxylate] |
| 100 to 500 | C[C@@H](COC(=O)N1CCC(n2c(=O)[nH]c3ncccc32)CC1)N(Cc1ccccc1)Cc1ccccc1 [Compound 2, (S)-2-(dibenzylamino)propyl 4-(2,3-dihydro-2-oxoimidazo[4,5-b]pyridin-1-yl)piperidine-1-carboxylate] |
| 200 | C[C@@H](COC(=O)N1CCCC(n2c(=O)[nH]c3ccccc32)CC1)N(Cc1ccccc1)Cc1ccccc1 (stereo partly drawn) [Compound 4, (S)-2-(dibenzylamino)propyl 4-(1,2-dihydro-2-oxobenzo[d]imidazol-3-yl)azepane-1-carboxylate] |
| 50 | C[C@@H](COC(=O)N1CCC(n2c(=O)[nH]c3ccccc32)C1)N(Cc1ccccc1)Cc1ccccc1 (stereo partly drawn) [Compound 6, (S)-2-(dibenzylamino)propyl 3-(1,2-dihydro-2-oxobenzo[d]imidazol-3-yl)pyrrolidine-1-carboxylate] |
| 100 to 500 | CN(CCOC(=O)N1CCC(n2c(=O)[nH]c3ccccc32)CC1)Cc1ccccc1 [Compound 9, 2-(N-benzyl-N-methylamino)ethyl 4-(1,2-dihydro-2-oxobenzo[d]imidazol-3-yl)piperidine-1-carboxylate] |
| 45 | O=C(OCCCN(Cc1ccccc1)Cc1ccccc1)N1CCC(n2c(=O)[nH]c3ccccc32)CC1 [Compound 10, 3-(dibenzylamino)propyl 4-(1,2-dihydro-2-oxobenzo[d]imidazol-3-yl)piperidine-1-carboxylate] |
| 45 | O=C(OCCC(c1ccccc1)c1ccccc1)N1CCC(n2c(=O)[nH]c3ccccc32)CC1 [Compound 12, 3,3-diphenylpropyl 4-(1,2-dihydro-2-oxobenzo[d]imidazol-3-yl)piperidine-1-carboxylate] |
| 45 | O=C(OCCN1C(=O)c2ccccc2C1=O)N1CCC(n2c(=O)[nH]c3ccccc32)CC1 [Compound 15, 2-(1,3-dioxoisoindolin-2-yl)ethyl 4-(1,2-dihydro-2-oxobenzo[d]imidazol-3-yl)piperidine-1-carboxylate] |
| 200 | CCN(CCOC(=O)N1CCC(n2c(=O)[nH]c3ccccc32)CC1)c1ccccc1 [Compound 17, 2-(ethyl(phenyl)amino)ethyl 4-(2-oxo-2,3-dihydro-1H-benzo[d]imidazol-1-yl)piperidine-1-carboxylate] |
| 50 | O=C(OCC(c1ccccc1)c1ccccc1)N1CCC(n2c(=O)[nH]c3ccccc32)CC1 [Compound 18, 2,2-diphenylethyl 4-(1,2-dihydro-2-oxobenzo[d]imidazol-3-yl)piperidine-1-carboxylate] |
| 20 | O=c1[nH]c2ccccc2n1C1CCN(C(=S)OCCN(Cc2ccccc2)Cc2ccccc2)CC1 [Compound 19, O-2-(dibenzylamino)ethyl 4-(1,2-dihydro-2-oxobenzo[d]imidazol-3-yl)piperidine-1-carbothioate] |
| 50 | C[C@@H](COC(=O)N1CCC(n2c(=O)n(C(=O)c3ccccc3)c3ccccc32)CC1)N(Cc1ccccc1)Cc1ccccc1 [Compound 21, (S)-2-(dibenzylamino)propyl 4-(1,2-dihydro-2-oxo-1-(benzoyl)benzo[d]imidazol-3-yl)piperidine-1-carboxylate] |
| 75 | Cn1c(=O)n(C2CCN(C(=O)OC[C@H](Cc3ccccc3)N(Cc3ccccc3)Cc3ccccc3)CC2)c2ccccc21 [Compound 22, (S)-2-(dibenzylamino)-3-phenylpropyl 4-(1,2-dihydro-1-methyl-2-oxobenzo[d]imidazol-3-yl)piperidine-1-carboxylate] |
| 50 | C[C@@H](CNC(=S)N1CCC(n2c(=O)[nH]c3ccccc32)CC1)N(Cc1ccccc1)Cc1ccccc1 [Compound 23, N—((S)-2-(dibenzylamino)propyl)-4-(1,2-dihydro-2-oxobenzo[d]imidazol-3-yl)piperidine-1-carbothioamide] |
| 25 | O=C(CCCN(Cc1ccccc1)Cc1ccccc1)N1CCC(n2c(=O)[nH]c3ccccc32)CC1 [Compound 24, 1-[1-(4-Dibenzylamino-butyryl)-piperidin-4-yl]-1,3-dihydro-benzoimidazol-2-one] |
| 100 to 500 | C[C@@H](COC(=O)N1CCC(n2c(=S)[nH]c3ccccc32)CC1)N(Cc1ccccc1)Cc1ccccc1 [Compound 25, (S)-2-(dibenzylamino)propyl 4-(1,2-dihydro-2-thioxobenzo[d]imidazol-3-yl)piperidine-1-carboxylate] |
| 45 | C[C@@H](COC(=O)Nc1ccc(-n2c(=O)[nH]c3ccccc32)cc1)N(Cc1ccccc1)Cc1ccccc1 [Compound 27, 2-(dibenzylamino)propyl 4-(1,2-dihydro-2-oxobenzo[d]imidazol-3-yl)phenylcarbamate] |
| 20 | O=C(OCCN(Cc1ccccc1)Cc1ccc([N+](=O)[O-])cc1)N1CCC(n2c(=O)[nH]c3ccccc32)CC1 [Compound 28, 2-(N-(4-nitrobenzyl)-N-benzylamino)ethyl 4-(1,2-dihydro-2-oxobenzo[d]imidazol-3-yl)piperidine-1-carboxylate] |
| 8 | CC(C)[C@@H](COC(=O)N1CCC(n2c(=O)[nH]c3ccccc32)CC1)N(Cc1ccccc1)Cc1ccccc1 [Compound 29, (S)-2-(dibenzylamino)-3-methylbutyl 4-(1,2-dihydro-2-oxobenzo[d]imidazol-3-yl)piperidine-1-carboxylate] |
| 12 | CC(C)C[C@@H](COC(=O)N1CCC(n2c(=O)[nH]c3ccccc32)CC1)N(Cc1ccccc1)Cc1ccccc1 [Compound 30, (S)-2-(dibenzylamino)-4-methylpentyl 4-(2-oxo-2,3-dihydro-1H-benzo[d]imidazol-1-yl)piperidine-1-carboxylate] |
| 50 | CC(C)(C)C(COC(=O)N1CCC(n2c(=O)[nH]c3ccccc32)CC1)N(Cc1ccccc1)Cc1ccccc1 (stereo not drawn) [Compound 31, 2-(dibenzylamino)-3,3-dimethylbutyl 4-(1,2-dihydro-2-oxobenzo[d]imidazol-3-yl)piperidine-1-carboxylate] |
| 35 | CC(CCOC(=O)N1CCC(n2c(=O)[nH]c3ccccc32)CC1)N(Cc1ccccc1)Cc1ccccc1 (stereo not drawn) [Compound 32, 3-(dibenzylamino)butyl 4-(1,2-dihydro-2-oxobenzo[d]imidazol-3-yl)piperidine-1-carboxylate] |
| 50 | CC(C)(COC(=O)N1CCC(n2c(=O)[nH]c3ccccc32)CC1)N(Cc1ccccc1)Cc1ccccc1 [Compound 33, 2-(dibenzylamino)-2-methylpropyl 4-(1,2-dihydro-2-oxobenzo[d]imidazol-3-yl)piperidine-1-carboxylate] |
| 40 | O=C(OC[C@H](c1ccccc1)N(Cc1ccccc1)Cc1ccccc1)N1CCC(n2c(=O)[nH]c3ccccc32)CC1 [Compound 34, (S)-2-(dibenzylamino)-2-phenylethyl 4-(1,2-dihydro-2-oxobenzo[d]imidazol-3-yl)piperidine-1-carboxylate] |
| 40 | O=C(OCCN(Cc1ccccc1)c1ccccc1)N1CCC(n2c(=O)[nH]c3ccccc32)CC1 [Compound 35, 2-(N-benzyl-N-phenylamino)ethyl 4-(1,2-dihydro-2-oxobenzo[d]imidazol-3-yl)piperidine-1-carboxylate] |
| 50 | C[C@@H](COC(=O)N1CCC(n2c(=O)[nH]c3ccccc32)CC1)N(Cc1ccccc1)Cc1ccc([N+](=O)[O-])cc1 [Compound 36, (S)-2-(benzyl(4-nitrobenzyl)amino)propyl 4-(2-oxo-2,3-dihydro-1H-benzo[d]imidazol-1-yl)piperidine-1-carboxylate hydrochloride] |
| 15 | O=C(OCCCN(Cc1ccccc1)Cc1ccc([N+](=O)[O-])cc1)N1CCC(n2c(=O)[nH]c3ccccc32)CC1 [Compound 38, 3-(benzyl(4-nitrobenzyl)amino)propyl 4-(2-oxo-2,3-dihydro-1H-benzo[d]imidazol-1-yl)piperidine-1-carboxylate hydrochloride] |
| 60 | COc1ccc(CN(Cc2ccccc2)[C@@H](C)COC(=O)N2CCC(n3c(=O)[nH]c4ccccc43)CC2)cc1 [Compound 39, (S)-2-(benzyl(4-methoxybenzyl)amino)propyl 4-(2-oxo-2,3-dihydro-1H-benzo[d]imidazol-1-yl)piperidine-1-carboxylate hydrochloride] |
| 15 | O=C(OCCN(Cc1ccccc1)Cc1ccc(Br)cc1)N1CCC(n2c(=O)[nH]c3ccccc32)CC1 [Compound 40, 2-(benzyl(4-bromobenzyl)amino)ethyl 4-(2-oxo-2,3-dihydro-1H-benzo[d]imidazol-1-yl)piperidine-1-carboxylate hydrochloride] |
| 50 | C[C@@H](COC(=O)N1CCC(n2c(=O)[nH]c3ccccc32)CC1)N(Cc1ccccc1)Cc1ccc(Br)cc1 [Compound 41, (S)-2-(benzyl(4-bromobenzyl)amino)propyl 4-(2-oxo-2,3-dihydro-1H-benzo[d]imidazol-1-yl)piperidine-1-carboxylate hydrochloride] |
